Assay results as given in US20190069552A1, “METHOD TO CONTROL PYRIMETHANIL TOLERANT FUNGI” (Janssen Pharmaceutica NV, priority 2016, published 2019).

How the values were obtained:
[1] = test system: Penicillium expansum strain PE110014, pyrimethanil-resistant; test: Poison plate assay on glucose agar, strain PE110014; assay type: cell-based
Description: (§1) • Name of component (I): pyrimethanil • Name of component (II): hexanoic acid (=CH3—(CH2)n—COOH wherein n is 4) • Test setup: to each well of a 24-well microtiter plate, 2 ml of Glucose Agar (GA: 10 g glucose, 1.5 g K2HPO4, 2 g KH2PO4, 1 g (NH4)2SO4, 0.5 g MgSO4 and 12.5 g agar in 1 litre deionised water) is added. The test compounds pyrimethanil as well as an alkane carboxylic acid (II) are dissolved in DMSO at the appropriate concentration and added to the liquid agar in a 5 μl droplet each. The nutrient medium is inoculated with the test fungi by adding 2.5 µl of a spore/mycelium suspension. The microwell plates are then incubated in the dark at 20° C. and 60% relative humidity. The growth of the fungi is evaluated after two weeks, when the growth diameter of untreated controls has reached 15 mm.
(§2) After a suitable incubation period, colony diameters on the agar are measured. Percentage growth (not % effect, see below) is then calculated for each treatment by comparing the colony diameter with the diameter for untreated controls (which is 15 mm).
(§3) The effect of adding an alkane carboxylic acid of formula CH3—(CH2)n—COOH (wherein n is 4 to 7) to restore sensitivity of pyrimethanil-resistant or pyrimethanil-tolerant fungi to pyrimethanil was calculated using the Colby synergy formula (Colby S. R., Weeds (1967), 15(1), 20-22).
(§4) When a is the % growth (not the % activity) still observed under treatment with compound A alone at a given concentration and b is the % growth still observed under treatment with compound B alone at a given concentration, the expected growth exp under treatment with the combination of both compounds at the same concentrations is:
(§5) When the observed growth of the test pathogens under the combination is less than the expected growth, there is synergy.

[2] = test system: Penicillium expansum strain PE110030, pyrimethanil-resistant; test: Poison plate assay on glucose agar, strain PE110030; assay type: cell-based
Description: as §1, §2, §3, §4, §5

[3] = test system: Penicillium expansum PE110091 (pyrimethanil-tolerant); test: Treatment of fruit (curative dip, Bio-apple Elstar); assay type: in vivo; settings: for % effect after 6 days (observed) / % effect after 9 days (observed): apple Elstar, curative
Description: untreated apples or pears (details below), inoculated with fungal pathogens by wounding the fruits with a contaminated pricker on two spots, and incubated at 20° C. and 96% relative humidity.
Curative: fruits are first infected with a pricker and treated by dipping four hours later.
After a suitable incubation period, the diameters of the infected spots are measured with a calliper. The average diameter is calculated for all spots in the same treatment (between 14 and 40 spots per treatment, see below). Percentage effect of the treatment is then calculated by comparing the average spot diameter with the average for untreated controls.
The effect of adding an alkane carboxylic acid of formula CH3—(CH2)n—COOH (wherein n is 4 to 7) to restore sensitivity of pyrimethanil-resistant or pyrimethanil-tolerant fungi to pyrimethanil was calculated using the Limpel synergy formula (Limpel, L. E. et al. (1962) “Weed control by dimethyl tetrachloroterephthalate alone and in certain combinations”, Proceedings of the N. E. Weed Control Conference 16: 48-53). When a is the % effect obtained by compound A alone at a given concentration and b is the % effect obtained by compound B alone at a given concentration, the expected effect e of the combination of both compounds at the same concentrations is:
Pyrimethanil was added to tap water as a 40% commercially available PENBOTEC 400SC formulation to obtain a concentration of 100 ppm pyrimethanil. The alkanoic acid was added to tap water to obtain a 2000 ppm solution, or the alkanoic acid was added to the pyrimethanil composition with a concentration of 2000 ppm.
Fruit: Bio-apple “Elstar”
Pathogen: Penicillium expansum PE110091 (pyrimethanil-tolerant)
Repeats: Two wounds per fruit, 15 fruits per treatment
Evaluations: 17 March (6 days), 20 March (9 days) Average rot diameter untreated: 6 days: 21.3 mm 9 days: 36.0 mm

[4] = test system: Penicillium expansum strain PE110048, pyrimethanil-resistant; test: Poison plate assay on glucose agar, strain PE110048; assay type: cell-based
Description: as §1, §2, §3, §4, §5

[5] = test system: Penicillium expansum PE110091; test: Pyrimethanil sensitivity of strain PE110091; assay type: cell-based; settings: strain PE110091, pyrimethanil-tolerant
[6] = test system: Penicillium expansum PE110101; test: Pyrimethanil sensitivity of strain PE110101; assay type: cell-based; settings: strain PE110101, pyrimethanil-sensitive
[7] = test system: Penicillium expansum strain PE110048; test: Pyrimethanil sensitivity of strain PE110048; assay type: cell-based; settings: strain PE110048, pyrimethanil-resistant
[8] = test system: Penicillium expansum strain PE110014; test: Pyrimethanil sensitivity of strain PE110014; assay type: cell-based; settings: strain PE110014, pyrimethanil-resistant
[9] = test system: Penicillium expansum strain PE110030; test: Pyrimethanil sensitivity of strain PE110030; assay type: cell-based; settings: strain PE110030, pyrimethanil-resistant
[10] = hexanoic acid alone at 250, 500 and 750 ppm
[11] = pyrimethanil 10 ppm alone, two weeks
[12] = pyrimethanil 100 ppm alone (PENBOTEC 400SC)

In the case of CCCCCC(=O)O [hexanoic acid], the “% growth (observed)” value ([1]; hexanoic acid 250 ppm alone) is reported as 100%, the “% growth (observed)” value ([1]; hexanoic acid 500 ppm alone) is reported as 100% and the “% growth (observed)” value ([1]; hexanoic acid 750 ppm alone) is reported as 100%. The “fungicidal effect (in words)” value [1, 10] was “no fungicidal effect”, the “% growth (observed)” value ([2]; hexanoic acid 250 ppm alone) was 100% and the “% growth (observed)” value ([2]; hexanoic acid 500 ppm alone) was 100%. For the same compound, the “% growth (observed)” value ([2]; hexanoic acid 750 ppm alone) was 100%, the “fungicidal effect (in words)” value [2, 10] was “no fungicidal effect” and the “fungicidal effect (in words)” value ([3]; PE110091 on apple, hexanoic acid alone at 2000 ppm) was “little fungicidal effect”. For the same compound, the “% effect after 6 days (observed)” value ([3]; hexanoic acid 2000 ppm alone) was 15%, the “% effect after 9 days (observed)” value ([3]; hexanoic acid 2000 ppm alone) was 6% and the “% growth (observed)” value ([4]; hexanoic acid 250 ppm alone) was 100%. For the same compound, the “% growth (observed)” value ([4]; hexanoic acid 500 ppm alone) was 100%, the “% growth (observed)” value ([4]; hexanoic acid 750 ppm alone) was 100% and the “fungicidal effect (in words)” value [4, 10] was “no fungicidal effect”.
Cc1cc(C)nc(Nc2ccccc2)n1 [pyrimethanil, 4,6-dimethyl-N-phenyl-2-pyrimidinamine] was tested, and the “% growth (observed)” value [1, 11] was 67%, the EC50 [5] was 5.01 ppm and the EC95 [5] was 74.99 ppm. The “% growth (observed)” value [2, 11] was 80%, the EC50 [6] was 0.29 ppm and the EC95 [6] was 0.88 ppm. For the same compound, the “% effect after 6 days (observed)” value [3, 12] was 19%, the “% effect after 9 days (observed)” value [3, 12] was 12% and the EC50 [7] was 22.39 ppm. The EC95 [7] was over 100 ppm, the EC50 [8] was 15.40 ppm and the EC95 [8] was over 100 ppm. For the same compound, the “% growth (observed)” value [4, 11] was 53%, the EC50 [9] was 16.38 ppm and the EC95 [9] was over 100 ppm.
